The test system of test [1] is HyNaC2/3/5. The experiment in a line: Whole-cell patch clamp, current density, HEK 293 cells expressing HyNaC2/3/5 (native or codon-optimized). The note with it: for current density: holding potential −70 mV, mean ± SD. Format: cell-based, Hydra magnipapillata. How it is done:
(§1) Cells were grown at 37 °C in a humidified atmosphere with 5% CO2. HEK 293 T and COS-7 cells were maintained as an adherent monolayer in Dulbecco’s modified Eagle’s medium supplemented with 10% FBS and 2 mM L-glutamine. Cells were passaged every 2–3 days.
(§2) Holding potential was −70 mV.
(§3) Statistical significance was defined as p < 0.05.
Background: The patch-clamp technique gives a direct electrical read-out from membranes.

Test [2] concerns HyNaC2/3/5. The experiment in a line: Whole-cell patch clamp, current density, COS-7 cells expressing HyNaC2/3/5 (native or codon-optimized). Format: cell-based, Hydra magnipapillata. As to conditions: for current density: holding potential −70 mV, mean ± SD. Here is the method: as §1, §2, §3
In test [3] the test system is HyNaC2/3/5. The experiment in a line: Concentration-response curve (whole-cell patch clamp), codon-optimized HyNaC2/3/5 in HEK cells. Format: cell-based, Hydra magnipapillata. As to conditions: codon-optimized HyNaC2/3/5, HEK cells, −70 mV, pH 7.4, RT, mean ± S.D., n = 8, read-out: apparent affinity (EC50, Hill fit).
Source text: as §2
where I is the current, [X] is the peptide concentration, Imin and Imax are the […] currents, respectively, EC50 is the concentration at which 50% of the maximal current is obtained, and H is the Hill coefficient (GraphPad Prism 6.0).

Test [4] concerns HyNaC2/3/5. The experiment in a line: Ca^2+ imaging (Fura-2), HEK 293 cells expressing HyNaC2/3/5. Format: cell-based, Hydra magnipapillata. As to conditions: 1 µM Hydra-RFamide II, Fura-2 340/380 nm, 6 experiments, 2 transfections, ionomycin 1 µM positive control. How it is done: For Ca^2+ imaging, cells were grown on coverslips and transfected as described for electrophysiological recordings. Approximately 48 h after transfection, cells were loaded with 2 µM of Fura-2-AM (Molecular Probes) for 30 min at 37 °C. Subsequently, the coverslips were mounted in a cell chamber and perfused with bath solution. Fura-2 was excited at 340/380 nm and the emission was recorded between 470 and 550 nm on an inverted microscope (IX71, Olympus, Chromaphor) using a sensicam CCD camera (PCO imaging). Acquisition and data analysis were performed using Till Vision real-time imaging software (Till Photonics). At the end of each experiment, a bath solution containing 1 µM ionomycin was used as a positive control.
as §3

Test [5] has as its system HyNaC2/3/5. As to conditions: Xenopus oocytes, ref [3], cited from earlier work.
The test system of the next test is HyNaCs. The note with it: ref [1–3]; cited from earlier work. An excerpt:
Electrophysiological properties of HyNaCs have been successfully characterized in Xenopus laevis oocytes [[1–3],[6]]. While expression in oocytes typically results in large current amplitudes of the foreign ion channel, expression in mammalian expression systems is better suited to study, for example, trafficking and regulation of an ion channel. In this study, we, therefore, expressed HyNaC2/3/5 ...

Test [6] concerns HyNaC2/3/5 (HA-tagged or untagged subunits). The experiment in a line: Whole-cell current density of codon-optimized HyNaC2/3/5 with or without C-terminal HA-tags. As to conditions: RFamide II 1 µM, mean ± S.E.M.
Description: The tags were separated from the coding sequence by a flexible linker ([sequence]). Fusion was performed in a two-step PCR protocol. For HyNaC2, the forward primer was 5’-[sequence]-3’, and the reverse primers were 5’-[sequence]-3’ and 5’-[sequence]-3’. For HyNaC3, the forward primer was 5’-[sequence]-3’, and the reverse primers were 5’-[sequence]-3’ and 5’-[sequence]-3’. And for HyNaC5, the forward primer was 5’-[sequence]-3’, and the reverse primers were 5’-[sequence]-3’ and 5’-[sequence]-3’. Constructs were cloned into pcDNA3.1(-) using BamHI and BbsI (HyNaC2) or BamHI and KpnI (HyNaC3 and HyNaC5). The sequences of the constructs were confirmed by sequencing of the full coding sequence (Eurofins Genomics).
Codon optimization of HyNaC2, HyNaC3, and HyNaC5 to Homo sapiens codon usage preferences was performed by BioCat GmbH (Heidelberg, Germany). The cDNA was synthesized with a C-terminal flexible linker ([sequence]) followed by three HA-tags and cloned into pcDNA3.1(-) using the same restriction sites as above. To create the codon-optimized constructs without linkers and tags, PCR was performed to insert an additional restriction site of either BbsI (HyNaC2) or KpnI (HyNaC3 and HyNaC5) between the end of the HyNaC coding sequence and the start of the linker. The resulting constructs were digested with the respective restriction enzymes and cloned into pcDNA3.1(-). The successful removal of linkers and tags was confirmed by sequencing (Eurofins Genomics).
Cells were transfected with 0.6 µg each of HyNaC2, HyNaC3, and HyNaC5 plus 0.2 µg of GFP per 35 mm dish using calcium phosphate transfection. Approximately 48 h after transfection, the culture dish with attached cells was mounted on the stage of an inverted phase-contrast microscope (IX71, Olympus). The recording chamber was perfused with the following bath solution (in mM): NaCl 128, KCl 5.4, HEPES 10, glucose 5.5, MgCl2 1, CaCl2 2; pH was adjusted with NaOH to 7.4 at RT (22–25 °C).
Patch-clamp experiments were performed in the whole-cell configuration, using an Axon-200B amplifier (Molecular Devices; San Jose, CA, USA) and an Axon Digidata 1440 A acquisition system controlled by the Clampex 10.0 software (Molecular Devices). Signals were low pass filtered at 1 kHz and digitized at 4 kHz. Micropipettes (4–6 MΩ) were prepared from borosilicate glass capillaries with a micropipette puller (DMZ-Universal Electrode Puller; Zeitz Instruments, Martinsried, Germany) and filled with an intracellular solution containing (in mM): NaCl 10, KCl 121, HEPES 10, EGTA 5, MgCl2 2. Holding potential was −70 mV. Capacitance and series resistances were compensated electronically at 80% and digital data were stored in a compatible PC for off-line analysis using Clampfit 10.0 software (Molecular Devices).
Electrophysiological data were analyzed offline using Clampfit 10.0 (Molecular Devices). Current density was obtained by dividing the maximal current amplitude (pA) by cell capacitance (pF). Data are presented as mean ± S.D., except for data in Figure 5, which are shown as mean ± S.E.M. The concentration–response curve for RFamide-II and codon-optimized HyNaCs was fitted to a Hill function: I=Imin+ Imax−Imin/1 + X/EC50^H
Statistical analysis was done using an unpaired t-test to compare two conditions and a one-way ANOVA (GraphPad Prism 6.0) for more than two conditions. Statistical significance was defined as p < 0.05.

Read-outs that look alike come from different tables or passages of the source.

In general, EC50 refers to the midpoint of the concentration-response curve. Consider pQWFNGRFamide [Hydra-RFamide II], for which the “type of current elicited” value in the test with HyNaC2/3/5 [1] (codon-optimized HyNaC2/3/5, HEK cells, 1 µM Hydra-RFamide II) was “sustained inward currents”; in the test on HyNaC2/3/5 [2] (codon-optimized HyNaC2/3/5, COS-7 cells, 1 µM Hydra-RFamide II), “sustained inward currents”. For the same substance, the current density is given as 113 ± 9 pA/pF in the test with HyNaC2/3/5 [1] (codon-optimized HyNaC2/3/5, HEK cells, 1 µM Hydra-RFamide II, pH 7.4, RT, n = 15, p < 0.001 vs native); 17 ± 9 pA/pF with HyNaC2/3/5 [2] (codon-optimized HyNaC2/3/5, COS-7 cells, 1 µM Hydra-RFamide II, pH 7.4, RT, n = 10, p < 0.001 vs native); 2 ± 3 pA/pF with HyNaC2/3/5 [2] (native HyNaC2/3/5, COS-7 cells, text: 1 µM Hydra-RFamide II (Figure 3 legend: native trace 10 µM RFamide I), n = 12); 49 ± 9 pA/pF in test [6] (HyNaC2 carried the HA-tag, n = 7–8, p < 0.05 vs untagged); 57 ± 8 pA/pF in test [6] (HyNaC3 carried the HA-tag, n = 7–8, p < 0.05 vs untagged); 50 ± 9 pA/pF in test [6] (HyNaC5 carried the HA-tag, n = 7–8, p < 0.05 vs untagged). In addition, the current density in test [6] (all subunits carrying an HA-tag, n = 7, p < 0.0001) is on record as 22 ± 7 pA/pF; in test [6] (no subunit carried the tag, n = 7–8), 84 ± 9 pA/pF. Also, the “current amplitude compared with Hydra-RFamide I” value in the test with HyNaC2/3/5 [2] (codon-optimized HyNaC2/3/5, COS-7 cells, text: 10 µM Hydra-RFamide II (Figure 3B legend: 1 µM), n = 10, p = 0.87 (unpaired t-test)) is “comparable current amplitudes”. The EC50 in the test on HyNaC2/3/5 [3] is 140 ± 30 nM. Besides, the “intracellular Ca^2+ signals” value in the test on HyNaC2/3/5 [4] (HEK 293 cells expressing codon-optimized HyNaC2/3/5, n = 48 cells, p < 0.001 vs native) was “robust intracellular Ca^2+ signals”. Also, in the test with HyNaC2/3/5 [4] (HEK 293 cells expressing native HyNaC2/3/5, n = 36 cells), the “intracellular Ca^2+ increase” value is on record as “hardly increased intracellular Ca^2+ above background”. In addition, the response in oocytes result in the test with HyNaC2/3/5 [5] (1 µM Hydra-RFamide II) was “maximal response”. Moreover, the “activation of HyNaCs” value with HyNaCs is recorded as “directly activated”.
In the case of pQWLGGRFamide [Hydra-RFamide I], the “type of current elicited” value with HyNaC2/3/5 [1] (native HyNaC2/3/5, HEK cells, 10 µM RFamide I) is “sustained inward currents”. Also, the current density with HyNaC2/3/5 [1] (native HyNaC2/3/5, HEK cells, 10 µM RFamide I, pH 7.4, RT (22–25 °C), n = 12) was 42 ± 10 pA/pF; in the test on HyNaC2/3/5 [2] (native HyNaC2/3/5, COS-7 cells, 10 µM RFamide I, pH 7.4, RT (22–25 °C), n = 12, p < 0.001 vs HEK), 5 ± 2 pA/pF. In addition, in the test on HyNaC2/3/5 [2] (codon-optimized HyNaC2/3/5, COS-7 cells, text: 1 µM Hydra-RFamide I (Figure 3B legend: 10 µM), n = 10, p = 0.87 (unpaired t-test)), the “current amplitude compared with Hydra-RFamide II” value is reported as “comparable current amplitudes”. For the same substance, in the test on HyNaC2/3/5 [5] (10 µM Hydra-RFamide I), the response in oocytes result was “maximal response”. For the same substance, the “activation of HyNaCs” value with HyNaCs is given as “directly activated”.

(Values after paper PMC7889164, “Efficient expression of a cnidarian peptide-gated ion channel in mammalian cells” (Channels, 2021).)
